These results are taken from US7943603B2, “Medical uses of a selective estrogen receptor modulator in combination with sex steroid precursors” (Endorecherche, Inc., priority 1998, dated 2011).

Each structure is given as a SMILES string.

Data set [1] deals with T1, estrogen receptor (Homo sapiens, UniProt P03372).
T1 sequence (P03372 1-595): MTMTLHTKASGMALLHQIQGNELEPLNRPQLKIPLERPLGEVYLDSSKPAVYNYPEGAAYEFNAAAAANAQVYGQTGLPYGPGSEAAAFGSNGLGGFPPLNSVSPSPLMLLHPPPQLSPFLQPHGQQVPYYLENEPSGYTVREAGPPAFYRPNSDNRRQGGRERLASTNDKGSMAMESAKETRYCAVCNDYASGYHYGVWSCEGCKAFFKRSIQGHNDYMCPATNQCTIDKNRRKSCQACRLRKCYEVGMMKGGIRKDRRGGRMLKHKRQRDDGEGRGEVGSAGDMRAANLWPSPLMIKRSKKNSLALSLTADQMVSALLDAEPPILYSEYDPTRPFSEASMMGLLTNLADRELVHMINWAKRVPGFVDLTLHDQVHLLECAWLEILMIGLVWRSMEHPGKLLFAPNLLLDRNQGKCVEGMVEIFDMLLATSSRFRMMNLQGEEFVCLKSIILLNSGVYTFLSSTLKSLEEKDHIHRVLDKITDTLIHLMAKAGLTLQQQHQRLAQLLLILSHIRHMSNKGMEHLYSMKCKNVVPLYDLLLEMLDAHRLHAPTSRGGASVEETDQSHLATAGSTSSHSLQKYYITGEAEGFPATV
The experiment in a line: Testing of antiestrogens for function as SERM.

Data set [2] has as its system human ZR-75-1 breast tumor xenografts. The experiment in a line: Growth of human ZR-75-1 breast tumor xenografts in OVX nude mice supplemented with estrone. As to conditions: E1 0.5 μg s.c. daily alone, OVX nude mice, 9.5 months. (In general: In xenograft studies the graft and the host belong to different species.)
The subject of data set [3] is postmenopausal women. As to conditions: cited from earlier work.
Data set [4] concerns ovariectomized rats. As to conditions: treatment with 5-diol.
Data set [5] can be described thus: Example 5 table: serum, urinary and GnRH mRNA parameters in OVX groups. It counts as in vivo. As to conditions: doses not given; for LH: LD: Limit of Detection: 0.01 ng/ml.
A short description of data set [6]: Solid state stability. It counts as physicochemical.

As to `CC/C(=C(/c1ccc(OCCN(C)C)cc1)c1cccc(O)c1)c1ccccc1` [Droloxifene], the “function as SERM” value in data set [1] is “found to function as SERMs”.

In the case of `C[C@]12CC[C@@H]3c4ccc(O)cc4CC[C@H]3[C@@H]1CCC2=O` [estrone], in data set [2], the “Complete response, (%)” value is 0%; the “Complete response, number” value is 0 (0); the “Partial response, (%)” value is listed as 0 (0) %; the “Partial response, number” value was 0 (0). In addition, in data set [2], the “Progression, number” value came to 14; the “Stable response, (%)” value was found to be 12.5%; the “Stable response, number” value amounted to 2. Besides, the “Complete response, (%)” value in data set [2] (listed as E1) is 0 (0) %.

Turning to `C[C@]12CC[C@H]3[C@@H](CCC4=CC(=O)CC[C@@H]43)[C@@H]1CC[C@@H]2O` [nandrolone], the “patients with androgenic side-effects” value in data set [3] was 50%.

For `C[C@]12CC[C@H]3[C@@H](CC=C4C[C@@H](O)CC[C@@]43C)[C@@H]1CC[C@@H]2O` [5-diol, androst-5-ene-3β,17β-diol], the “serum alkaline phosphatase activity” value in data set [4] was “marked stimulation”.

As to `C[C@]12CC[C@@H]3c4ccc(O)cc4C[C@@H](CCCCCCCCC[S+]([O-])CCCC(F)(F)C(F)(F)F)[C@H]3[C@@H]1CC[C@@H]2O` (stereo partly shown) [ICI 182,780], in data set [1], the “function as SERM” value is “found not to function as SERMs”.

Consider `C[C@]12CC[C@@H]3c4ccc(O)cc4CC[C@H]3[C@@H]1CC[C@@H]2O` [E2, 17β-estradiol], for which, in data set [5], the Cholesterol was found to be 2.02 ± 0.15 mmol/L, the “GnRH mRNA levels silver grains per cell” value was 40.4 ± 0.8 silver grains per cell, the “Serum Alkaline phosphatase” value came out at 41 ± 5 IU/L and the Triglycerides was 0.8 ± 0.1 mmol/L. In data set [5], the “Urinary OH-proline/creatinin” value came out at 9.2 ± 0.9 μmol/mmol and the LH was determined as 2.37 ± 0.45 ng/mL.

Consider `CC(=O)O[C@]1(C(C)=O)CC[C@H]2[C@@H]3C[C@H](C)C4=CC(=O)CC[C@]4(C)[C@H]3CC[C@@]21C` [MPA], for which, in data set [5], the Cholesterol was 2.55 ± 0.14 mmol/L, the “GnRH mRNA levels silver grains per cell” value turned out to be 35.5 ± 0.7 silver grains per cell, the “Serum Alkaline phosphatase” value is on record as 57 ± 4 IU/L and the Triglycerides is recorded as 1.3 ± 0.1 mmol/L. For the same compound, in data set [5], the “Urinary OH-proline/creatinin” value came to 11.7 ± 1.2 μmol/mmol and the LH was determined as 2.51 ± 0.20 ng/mL.

In the case of `C[C@]12CCC(=O)C[C@@H]1CC[C@@H]1[C@@H]2CC[C@]2(C)[C@@H](O)CC[C@@H]12` [DHT], in data set [5], the Cholesterol is given as 2.44 ± 0.16 mmol/L, the “GnRH mRNA levels silver grains per cell” value is reported as 38.8 ± 0.7 silver grains per cell, the “Serum Alkaline phosphatase” value is recorded as 56 ± 5 IU/L and the Triglycerides was 0.9 ± 0.1 mmol/L. In data set [5], the “Urinary OH-proline/creatinin” value came to 7.8 ± 0.7 μmol/mmol and the LH was determined as 1.55 ± 0.27 ng/mL.

As for `CC1=C(c2ccc(O)cc2)[C@H](c2ccc(OCCN3CCCCC3)cc2)Oc2cc(O)ccc21.Cl` [EM-01538, (S)-(+)-7-hydroxy-3-(4′-hydroxyphenyl)-4-methyl-2-(4″-(2′″-piperidinoethoxy)phenyl)-2H-1-benzopyran hydrochloride], in data set [6], the solid state stability result is “good solid state stability”.
